From patent US8202893B2, “Cannabinergic lipid ligands” (University of Connecticut, priority 2004, dated 2012)

target: T1, COX-2 (Homo sapiens, UniProt P35354); experiment: Inhibition of COX: arachidonic acid metabolism; type: biochemical; settings: 25 nmoles compound with 25 nmoles AA, 250 μL, 2 min
T1 construct: purchased Cayman Chemical
T1 sequence (P35354 18-604): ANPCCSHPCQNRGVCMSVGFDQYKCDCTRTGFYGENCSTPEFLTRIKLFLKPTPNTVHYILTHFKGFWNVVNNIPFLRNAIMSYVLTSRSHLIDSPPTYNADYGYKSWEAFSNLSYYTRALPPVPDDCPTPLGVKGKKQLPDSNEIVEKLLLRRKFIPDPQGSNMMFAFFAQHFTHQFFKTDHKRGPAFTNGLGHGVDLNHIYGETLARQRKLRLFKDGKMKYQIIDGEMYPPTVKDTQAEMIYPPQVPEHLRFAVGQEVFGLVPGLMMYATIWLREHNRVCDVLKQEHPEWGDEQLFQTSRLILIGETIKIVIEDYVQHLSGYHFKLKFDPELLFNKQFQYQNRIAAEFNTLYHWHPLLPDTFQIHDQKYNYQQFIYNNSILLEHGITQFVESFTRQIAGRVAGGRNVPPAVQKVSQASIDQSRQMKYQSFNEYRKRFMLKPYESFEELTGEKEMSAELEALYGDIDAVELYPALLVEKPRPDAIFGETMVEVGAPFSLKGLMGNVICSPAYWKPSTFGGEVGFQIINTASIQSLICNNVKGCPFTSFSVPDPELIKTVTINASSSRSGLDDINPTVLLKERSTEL
Procedure: All compound solutions were made to a concentration of 10 mM in DMSO. Three tests were performed on each compound: hydrolysis, to determine the stability of the compound in assay conditions without the enzyme present; metabolism, to determine the stability of the compound with the enzyme present; and inhibition of arachidonic acid (AA) metabolism.
To test the stability of the compounds in enzyme assay conditions, 25 nmoles of the compound were incubated with 12.5 μl 100 uM hematin in assay buffer (0.1M PH8.0 Tris-HCl, 2 mM phenol, 5 mM EDTA, 0.1% BSA, final volume of 250 μL) for 2 minutes at 25° C. Samples (100 μL) were taken at the start of the assay and after 2 minutes, diluted 1:5 with acetonitrile and centrifuged (20,000 RCF, five minutes, room temperature) to precipitate the proteins. The resulting supernatant was injected onto the HPLC. Calculations for determining the percent compound remaining are described in the following equation: % R=Peak Area(T2)/Peak Area(T0) To determine whether or not the compounds were good substrates for COX enzyme, 25 nmoles of the compound were incubated with 12.5 μl COX enzyme (purchased form Cayman Chemical) and 5 uM hematin in assay buffer (final volume 250 μL). The reaction mixture was treated in the same manner as described above. Concentrations of AA were calculated using external standards. […] Again the reaction mixture was treated in the same manner as described above and the concentrations of AA were calculated using external standards. Percent inhibition was calculated using the following equation: % Inhib.=(AA0-AA2)i/(AA0-AA2)s where (AA0-AA2)i is the amount of arachidonic acid metabolized over 2 minutes with the inhibitor present and (AA0-AA2)s is the amount of arachidonic acid metabolized over 2 minutes when the inhibitor is not present. […] The reaction mixtures were treated as described above and the amount of AA metabolized was calculated. The software package GraphPad Prism was utilized to calculate IC50 and Ki. HPLC Conditions:
Chromatographic separation was achieved using an Ultrasphere ODS Pre-column (4.6×45 mm) from Beckman. Hardware consisted of a Waters Millennium HPLC system with a 20 μL injection loop. The mobile phase consisted of 8.5% o-phosphoric acid:acetonitrile (3:7), run isocratically at a rate of 1 mL/min and detection at 204 nm. The total run time was 8 minutes with AA at 6.0 minutes.

Question: How did the “COX-2 % Inhibition” value turn out when O=C(CCC/C=C\C/C=C\C/C=C\C/C=C\CCCCc1ccccc1)NCC1CC1 [Compound A1] was run?
Answer: 78.4%

Question: O=C(CCC/C=C\C/C=C\C/C=C\C/C=C\CCc1ccccc1)Nc1ccc(O)cc1 [Compound A3] was tested. Which “COX-2 % Inhibition” value did it give?
Answer: 77.4%

Question: For COc1cc(CNC(=O)CCC/C=C\C/C=C\C/C=C\C/C=C\CCCCN=[N+]=[N-])ccc1O [Compound A7], which “COX-2 % Inhibition” value is on record?
Answer: 42.4%

Question: COc1cc(CNC(=O)CCC/C=C\C/C=C\C/C=C\C/C=C\CCCCN=C=S)ccc1O [Compound A12] was tested. Which “COX-2 % Inhibition” value did it give?
Answer: 46.2%
